Reference: patent US8338423B2, “Compositions for the treatment of hyperphenylalaninemia” (Universidad de Zaragoza, priority 2007, dated 2012)
Substitutions are numbered along the chain they refer to.

Columns and labels:
wt-PAH = biological target: T1, wt-PAH (Homo sapiens, UniProt P00439); assay: ANS-monitored thermal unfolding of wt-PAH; assay type: binding; settings: for ΔT0.5 PAHwt / T0.5 PAHwt (half denaturation temperature): 100 μM compound; for ΔT0.5 PAHwt: vs no ligand; for T0.5 PAHwt (half denaturation temperature): mean ± SD; for stabilizing effect on wt-PAH: 25 μM compound (FIG. 2)
T1 construct: made in house; host or cells: E. coli
T1 sequence (P00439 1-452): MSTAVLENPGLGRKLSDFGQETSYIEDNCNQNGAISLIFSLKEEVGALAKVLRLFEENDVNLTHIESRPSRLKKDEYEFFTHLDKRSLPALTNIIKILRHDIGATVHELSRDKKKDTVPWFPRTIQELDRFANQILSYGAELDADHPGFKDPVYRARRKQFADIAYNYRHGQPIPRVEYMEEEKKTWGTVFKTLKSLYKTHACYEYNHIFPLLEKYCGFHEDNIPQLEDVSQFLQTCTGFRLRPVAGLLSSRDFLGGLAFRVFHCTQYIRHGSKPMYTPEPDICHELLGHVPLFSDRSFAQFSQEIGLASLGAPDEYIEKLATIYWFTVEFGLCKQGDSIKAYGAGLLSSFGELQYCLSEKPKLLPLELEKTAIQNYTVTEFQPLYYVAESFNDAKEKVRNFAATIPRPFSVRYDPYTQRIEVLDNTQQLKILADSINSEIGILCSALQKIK
Description: (§1) HTS for ligand-induced PAH stabilization was performed by monitoring the thermal denaturation of recombinant pure PAH protein in the presence of the extrinsic fluorescent probe 8-anilino 1-naphtalene sulfonic acid (ANS; Aldrich). HTS experiments were performed in a FluoDia T70 High Temperature Fluorescence Microplate Reader (Photon Technology International). Protein-ligand solutions (200 uL) were dispensed into 96-well microplates (ThermoFast®96 Skirted from Abgene) and overlayed with mineral oil. Protein solutions contained 0.1 mg/ml PAH (2 μM in PAH subunit) in 20 mM Hepes 200 mM NaCl pH 7.0 and 100 μM ANS. Ligands were added in DMSO, at 100 μM and 2.5% final concentration, respectively. Control experiments in the absence of DMSO and/or ligands were routinely performed in each microplate. Ligands (from MayBridge HitFinder™ Collection Database) were manually added to the microplates containing the protein solutions and incubated at 25° C. for 30 min before loading them onto the microplate reader. Thermal denaturation was monitored by following the increase in ANS fluorescence intensity due to protein unfolding λexc=395 and λern=500 nm; filters (Matulis D, et. Al., Biochemistry 2005, 44(13):5258-66). Fluorescence was registered in the 25-75° C. range, at a 1° C./min scan rate and allowing the system to equilibrate at each temperature for 1 min before fluorescence acquisition The experiments were real-time monitored using the software provided by the manufacturer. After smoothing and normalization of the experimental data, ligand induced stabilization was screened by estimation of the T0.5 as midpoint temperature of the transition defined as the temperature where half of the unfolded fluorescence signal (fu) is experimentally observed, using a home-built software written in C++ and the following expression (equation 1): […]
(§2) Additional thermal denaturation experiments were performed on a Cary Eclipse fluorescence spectrophotometer equipped with a temperature controlled Peltier multicell holder (Varian). Samples containing PAH (2 μM subunit) in 20 mM NaHepes, 200 mM NaCl, pH 7.0, 100 μM ANS, 2.5% DMSO and 0-100 μM ligands were incubated at room temperature for 30 min to allow equilibration prior to measurements. Thermal denaturation was monitored by following changes in ANS fluorescence emission (excitation at 395 and emission at 500 nm; slits 10 nm) at a 1 K/min in a 20-80° C. range. Each run contained 4 different samples, including a control in the absence of ligand. Data analysis was performed by fitting of the experimental fluorescence to equation 1.

R68S-PAH = biological target: T2, R68S-PAH (Homo sapiens, UniProt P00439, R68S); assay: ANS-monitored thermal unfolding of R68S-PAH; assay type: binding; settings: for ΔT0.5 PAHR68S / T0.5 PAHR68S: 100 μM compound; for ΔT0.5 PAHR68S: vs no ligand; for T0.5 PAHR68S: mean ± SD; for stabilization of R68S-PAH: 100 μM ligand
T2 construct: made in house; host or cells: E. coli
T2 sequence (P00439 1-452 R68S): T1 sequence (P00439 1-452) with R68S
Description: as §1, §2
Similar ligand-induced stabilization experiments were performed using i) a double truncated form of PAH equivalent to the catalytic domain (PAH103-428) lacking both the regulatory N-terminal domain and the tetramerization motif and existing as a functional dimmer and ii) the R68S-PAH mutant, associated to mild PKU and one of the few PKU mutants that display enough stability to be purified as a stable tetramer.

Row | SMILES | ΔT0.5 PAHwt (wt-PAH) [°C] | T0.5 PAHwt (half denaturation temperature) (wt-PAH) [°C] | ΔT0.5 PAHR68S (R68S-PAH) [°C] | T0.5 PAHR68S (R68S-PAH) [°C] | stabilization of R68S-PAH (R68S-PAH) | stabilizing effect on wt-PAH (wt-PAH)
1 | Cn1cnc([N+](=O)[O-])c1N1CCN(C(c2ccccc2)c2ccccc2)CC1 [Compound 6, 1-benzhydryl-4-(1-methyl-4-nitro-1H-imidazol-5-yl)piperazine] | 2.7 | 52.2 ± 1.3 | 3.2 | 52.1 ± 1.6 | significantly stabilized | 
2 | Nc1c(-c2ccc3ccccc3n2)c2ccc([N+](=O)[O-])cc2c(=O)n1Cc1ccccc1 [Compound 11, 3-amino-2-benzyl-7-nitro-4-(2-quinolyl)-1,2-dihydroisoquinolin-1-one] | 13.6 | 63.1 ± 2.9 | 8.2 | 57.1 ± 0.3 | significantly stabilized | significant
3 | Cc1onc(-c2ccccc2)c1-c1n[nH]c(N)c1C#N [Compound 5, 5-amino-3-(5-methyl-3-phenyl-4-isoxazolyl)-1H-pyrazole-4-carbonitrile] | 2.6 | 52.1 ± 0.9 | 1.1 | 50.0 ± 1.4 |  | 
4 | Cc1ccnc(-n2c(=S)[nH]c3sc(C)c(C)c3c2=O)c1 [Compound 13, 5,6-dimethyl-3-(4-methyl-2-pyridinyl)-2-thioxo-2,3 dihydrothieno[2,3-d]pyrimidin-4(1H)-one] | 7.2 | 56.7 ± 1.5 | 1.6 | 50.5 ± 0.5 | only a slight stabilized | significant
